Laboratory results published in patent publication US11484543B2, “Compositions and methods for diagnosing and treating diseases and disorders associated with mutant KCNJ5” (The Rockefeller University, priority 2017, dated 2022).

Target: T1, KCNJ5^G151R homotetramers (Homo sapiens, UniProt P48544, G151R)
T1 construct: GFP; expressed in transfected cells; host or cells: HEK293T (American Type Culture Collection), transient
T1 sequence (P48544 1-419 G151R): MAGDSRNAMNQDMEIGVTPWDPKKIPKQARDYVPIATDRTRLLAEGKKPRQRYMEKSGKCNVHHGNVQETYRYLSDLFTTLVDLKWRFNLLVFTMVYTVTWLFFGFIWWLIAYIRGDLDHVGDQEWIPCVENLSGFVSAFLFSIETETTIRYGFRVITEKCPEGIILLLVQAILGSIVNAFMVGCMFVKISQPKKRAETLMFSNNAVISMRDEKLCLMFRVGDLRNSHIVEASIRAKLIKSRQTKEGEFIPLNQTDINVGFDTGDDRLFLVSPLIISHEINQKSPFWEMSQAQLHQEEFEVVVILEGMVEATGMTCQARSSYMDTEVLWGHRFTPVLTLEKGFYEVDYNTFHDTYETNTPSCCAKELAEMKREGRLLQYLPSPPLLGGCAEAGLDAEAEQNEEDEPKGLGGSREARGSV
Experiment: Perforated whole-cell patch clamp, KCNJ5^G151R homotetramers in HEK293T cells
Format: cell-based
Conditions: HEK-293T, at −80 mV
Experimental: Cation currents were measured with the perforated whole cell recording technique (140 mM NaCl/5 mM KCl bath solution, 140 mM KCl pipette solution for KCNJ5^G151R; 140 mM NaCl/5 mM KCl bath solution, 140 mM KCl, 1.8 mM MgCl2 pipette solution for KCNJ5^L168R; 140 mM KCl bath and pipette solution for KCNJ5^WT). […] Errors represent standard error of the mean, N=3 to 6. […] In contrast, WT currents are not inhibited.
HEK293T cells (American Type Culture Collection) were used for transient expression of GFP-tagged KCNJ5 or KCNJ3. The cells were grown in Dulbecco's modified Eagle medium (DMEM; Invitrogen) supplemented with 10% FBS (Invitrogen) in 5% CO2 and 95% air at 37° C. […]
Within 24 hr after transfection, the cells were treated with trypsin-containing medium (TrypLE Express) (Gibco) for 10 minutes to detach the cells. […] Fluorescence signal (an indication of positive transfection) was detected with an intensified video imaging system including a SIT 68 camera (Long Island Industries). […] After forming a high resistance seal (>2 GΩ), the membrane capacitance was monitored until the whole-cell patch configuration was formed. The cell membrane capacitance was measured and compensated. The K/cation currents were measured from −80 mV to 20 mV with 20 mV steps by an Axon 200A patch-clamp amplifier. […]

CC[C@H]1OC(=O)[C@H](C)[C@@H](O[C@H]2C[C@@](C)(OC)[C@@H](O)[C@H](C)O2)[C@H](C)[C@@H](O[C@@H]2O[C@H](C)C[C@H](N(C)C)[C@H]2O)[C@](C)(O)C[C@@H](C)/C(=N\OCOCCOC)[C@H](C)[C@@H](O)[C@]1(C)O [Roxithromycin, roxithromycin]
inhibition at 10 µM (10 μM): 53% | inhibition at 20 µM (20 μM): 80%
